Assay results taken from patent US20070117770A1, “Human ribosomal DNA (rDNA) and ribosomal RNA (rRNA) nucleic acids and uses thereof” (Cylene Pharmaceuticals, Inc., priority 2005, published 2007).

Legend:
Test in all cases: Protein kinase inhibition assay
Format in all cases: biochemical
MAPKAP-K3(h) = MAPKAP-K3(h) (Homo sapiens, UniProt Q16644); details: read-out: percent residual activity of MAPKAP-K3(h)
Description: (§1) Certain compounds were tested for activity in protein kinase inhibition assays. All substrates were dissolved and diluted to working stocks in de-ionized water, apart from histone H1 (10× working stock in 20 mM MOPS pH 7.0), PDKtide (10× working stock in 50 mM Tris pH 7.0) ATF2 (which is typically stored at a 20× working stock in 50 mM Tris pH 7.5, 150 mM NaCl, 0.1 mM EGTA, 0.03% Brij-35, 50% glycerol, 1 mM benzamidine, 0.2 mM PMSF and 0.1% R-mercaptoethanol), KKLNRTLSFAEPG (SEQ ID NO:203) and RRRLSFAEPG (SEQ ID NO:204) (50 mM HEPES pH 7.4) and GGEEEEYFELVKKKK (SEQ ID NO:205) (20 mM MOPS pH 7.0). All kinases were pre-diluted to a 10× working concentration prior to addition into the assay. The composition of the dilution buffer for each kinase is detailed below.
In a final reaction volume of 25 μl, MAPKAP-K3 (h) (5-10 mU) is incubated with 50 mM Na R-glycerophosphate pH 7.5, 0.1 mM EGTA, 30 μM KKLNRTLSVA (SEQ ID NO:212), 10 mM MgAcetate and [gamma-33P-ATP] (specific activity approx. 500 cpm/pmol, concentration as required). The reaction is initiated by the addition of the MgATP mix. After incubation for 40 minutes at room temperature, the reaction is stopped by the addition of 5 μl of a 3% phosphoric acid solution. […]

CDK7/cyclinH/MAT1(h) = CDK7/cyclinH/MAT1(h) (Homo sapiens, UniProt P50613); details: read-out: percent residual activity of CDK7/cyclinH/MAT1(h)
Description: as §1
(§2) In a final reaction volume of 25 μl, CDK7/cyclinH/MAT1 (h) (5-10 mU) is incubated with 8 mM MOPS pH 7.0, 0.2 mM EDTA, 500 μM peptide, 10 mM MgAcetate and [y-33P-ATP] (specific activity approx. 500 cpm/pmol, concentration as required). The reaction is initiated by the addition of the MgATP mix. After incubation for 40 minutes at room temperature, the reaction is stopped by the addition of 5 μl of a 3% phosphoric acid solution. 10 μl of the reaction is then spotted onto a P30 filtermat and washed three times for 5 minutes in 75 mM phosphoric acid and once in methanol prior to drying and scintillation counting.

RIPK2(h) = RIPK2(h) (Homo sapiens, UniProt O43353); details: read-out: percent residual activity of RIPK2(h)
Description: as §1
as §2, with “RIPK2” for “CDK7/cyclinH/MAT1”, “0.33 mg/ml myelin basic protein,” for “500 μM peptide,”, “[gamma-33P-ATP]” for “[y-33P-ATP]”

TrkA(h) = TrkA(h) (Homo sapiens, UniProt P04629); details: read-out: percent residual activity of TrkA(h)
Description: as §1
as §2, with “μl, TrkA” for “μl, CDK7/cyclinH/MAT1”, “EDTA, 250” for “EDTA, 500”, “μM KKKSPGEYVNIEFG (SEQ ID NO:207),” for “μM peptide,”, “and [gamma-33P-ATP]” for “and [y-33P-ATP]”

ZIPK(h) = ZIPK(h) (Homo sapiens, UniProt O43293); details: read-out: percent residual activity of ZIPK(h)
Description: as §1
as §2, with “μl, ZIPK” for “μl, CDK7/cyclinH/MAT1”, “EDTA, 250” for “EDTA, 500”, “μM KKLNRTLSFAEPG (SEQ ID NO:203),” for “μM peptide,”, “and [gamma-33P-ATP]” for “and [y-33P-ATP]”

BTK(h) = BTK(h) (Homo sapiens, UniProt Q06187); details: read-out: percent residual activity of BTK(h)
Description: as §1
In a final reaction volume of 25 μl, BTK (h) (5-10 mU) is incubated with 8 mM MOPS pH 7.0, 0.2 mM EDTA, 250 μM KVEKIGEGTYGVVYK (SEQ ID NO:211) (Cdc2 peptide), 10 mM MgAcetate and [gamma-33P-ATP] (specific activity approx. 500 cpm/pmol, concentration as required). The reaction is initiated by the addition of the MgATP mix. After incubation for 40 minutes at room temperature, the reaction is stopped by the addition of 5 μl of a 3% phosphoric acid solution. […]

Chain of BTK(h) (Q06187 whole entry): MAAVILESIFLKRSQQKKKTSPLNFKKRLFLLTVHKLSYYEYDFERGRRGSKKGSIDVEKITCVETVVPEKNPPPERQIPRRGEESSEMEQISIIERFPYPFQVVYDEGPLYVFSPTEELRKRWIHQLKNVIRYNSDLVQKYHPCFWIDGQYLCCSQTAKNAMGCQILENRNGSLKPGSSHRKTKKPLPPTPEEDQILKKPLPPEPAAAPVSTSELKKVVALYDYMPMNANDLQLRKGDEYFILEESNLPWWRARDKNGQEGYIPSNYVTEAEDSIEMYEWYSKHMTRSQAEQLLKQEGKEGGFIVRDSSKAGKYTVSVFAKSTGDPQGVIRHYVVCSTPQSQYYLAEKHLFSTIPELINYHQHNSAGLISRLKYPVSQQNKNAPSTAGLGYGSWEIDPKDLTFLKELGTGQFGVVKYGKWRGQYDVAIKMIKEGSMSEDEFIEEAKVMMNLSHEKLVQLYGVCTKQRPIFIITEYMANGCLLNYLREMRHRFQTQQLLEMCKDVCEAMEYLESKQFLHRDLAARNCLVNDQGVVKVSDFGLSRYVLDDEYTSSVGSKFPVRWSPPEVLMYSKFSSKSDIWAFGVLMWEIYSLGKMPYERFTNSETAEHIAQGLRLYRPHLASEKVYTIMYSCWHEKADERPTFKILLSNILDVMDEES
Chain of MAPKAP-K3(h) (Q16644 whole entry): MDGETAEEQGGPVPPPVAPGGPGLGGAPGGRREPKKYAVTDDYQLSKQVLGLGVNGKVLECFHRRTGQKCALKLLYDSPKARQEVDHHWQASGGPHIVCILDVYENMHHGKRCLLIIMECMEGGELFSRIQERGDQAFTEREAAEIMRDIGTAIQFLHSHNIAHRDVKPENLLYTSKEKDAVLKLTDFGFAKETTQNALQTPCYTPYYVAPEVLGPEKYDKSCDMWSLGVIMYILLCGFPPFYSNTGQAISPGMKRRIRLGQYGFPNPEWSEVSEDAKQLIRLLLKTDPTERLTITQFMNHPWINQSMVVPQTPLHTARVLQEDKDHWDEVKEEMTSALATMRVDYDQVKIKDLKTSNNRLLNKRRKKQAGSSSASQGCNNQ
Chain of RIPK2(h) (O43353 whole entry): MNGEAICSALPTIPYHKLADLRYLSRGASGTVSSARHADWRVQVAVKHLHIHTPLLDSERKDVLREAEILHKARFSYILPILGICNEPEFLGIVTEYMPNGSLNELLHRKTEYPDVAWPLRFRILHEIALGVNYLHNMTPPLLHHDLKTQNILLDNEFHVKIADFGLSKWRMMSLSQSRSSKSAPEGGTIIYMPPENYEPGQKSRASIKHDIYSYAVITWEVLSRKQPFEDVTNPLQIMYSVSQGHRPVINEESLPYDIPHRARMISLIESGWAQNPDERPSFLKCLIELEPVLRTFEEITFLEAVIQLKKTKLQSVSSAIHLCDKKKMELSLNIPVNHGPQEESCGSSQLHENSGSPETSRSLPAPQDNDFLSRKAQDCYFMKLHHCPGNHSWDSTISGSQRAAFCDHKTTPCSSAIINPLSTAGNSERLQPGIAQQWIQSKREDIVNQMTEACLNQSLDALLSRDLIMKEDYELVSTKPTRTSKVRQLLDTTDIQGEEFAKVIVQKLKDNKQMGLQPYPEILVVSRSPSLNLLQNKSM
Chain of ZIPK(h) (O43293 whole entry): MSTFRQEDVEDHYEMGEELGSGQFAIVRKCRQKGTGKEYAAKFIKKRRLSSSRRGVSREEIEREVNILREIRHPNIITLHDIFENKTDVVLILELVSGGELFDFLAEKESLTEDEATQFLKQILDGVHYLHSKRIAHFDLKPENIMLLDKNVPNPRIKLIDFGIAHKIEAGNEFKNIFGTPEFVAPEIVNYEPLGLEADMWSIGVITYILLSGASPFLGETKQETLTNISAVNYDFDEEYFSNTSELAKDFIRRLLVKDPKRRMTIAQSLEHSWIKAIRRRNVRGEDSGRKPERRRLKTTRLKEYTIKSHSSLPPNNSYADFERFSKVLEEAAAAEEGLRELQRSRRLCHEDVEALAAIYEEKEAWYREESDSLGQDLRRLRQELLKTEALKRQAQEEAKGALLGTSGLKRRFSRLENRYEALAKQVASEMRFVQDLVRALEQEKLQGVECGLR
Chain of TrkA(h) (P04629 33-796): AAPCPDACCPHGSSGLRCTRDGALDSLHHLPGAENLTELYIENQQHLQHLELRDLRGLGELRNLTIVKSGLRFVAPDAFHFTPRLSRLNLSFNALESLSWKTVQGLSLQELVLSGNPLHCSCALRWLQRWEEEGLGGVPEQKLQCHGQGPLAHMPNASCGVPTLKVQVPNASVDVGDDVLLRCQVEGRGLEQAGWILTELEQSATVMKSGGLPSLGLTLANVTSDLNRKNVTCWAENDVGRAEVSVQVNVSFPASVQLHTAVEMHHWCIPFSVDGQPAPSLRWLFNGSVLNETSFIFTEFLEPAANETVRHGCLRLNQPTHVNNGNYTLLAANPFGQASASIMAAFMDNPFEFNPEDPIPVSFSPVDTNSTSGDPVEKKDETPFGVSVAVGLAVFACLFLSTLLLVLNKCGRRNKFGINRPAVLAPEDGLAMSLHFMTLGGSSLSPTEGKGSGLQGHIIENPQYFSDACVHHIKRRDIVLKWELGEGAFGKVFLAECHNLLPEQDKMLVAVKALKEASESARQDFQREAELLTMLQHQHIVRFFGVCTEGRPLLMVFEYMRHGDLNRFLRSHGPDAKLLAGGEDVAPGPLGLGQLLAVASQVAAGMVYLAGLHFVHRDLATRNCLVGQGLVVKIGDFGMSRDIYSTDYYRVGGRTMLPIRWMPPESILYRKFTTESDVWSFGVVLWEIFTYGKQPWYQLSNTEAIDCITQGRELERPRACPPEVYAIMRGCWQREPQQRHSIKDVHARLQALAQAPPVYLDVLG
Chain of CDK7/cyclinH/MAT1(h) (P50613 whole entry): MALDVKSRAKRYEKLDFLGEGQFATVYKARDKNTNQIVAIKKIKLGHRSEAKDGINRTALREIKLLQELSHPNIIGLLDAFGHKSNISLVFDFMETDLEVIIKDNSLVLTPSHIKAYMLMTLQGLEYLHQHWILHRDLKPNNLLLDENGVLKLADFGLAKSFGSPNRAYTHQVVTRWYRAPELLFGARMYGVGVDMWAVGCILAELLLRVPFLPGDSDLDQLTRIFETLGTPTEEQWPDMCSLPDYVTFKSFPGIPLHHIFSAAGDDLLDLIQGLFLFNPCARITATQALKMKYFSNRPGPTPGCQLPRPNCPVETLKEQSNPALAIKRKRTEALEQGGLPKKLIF
Chain of CDK7/cyclinH/MAT1(h) (P51946 whole entry partner): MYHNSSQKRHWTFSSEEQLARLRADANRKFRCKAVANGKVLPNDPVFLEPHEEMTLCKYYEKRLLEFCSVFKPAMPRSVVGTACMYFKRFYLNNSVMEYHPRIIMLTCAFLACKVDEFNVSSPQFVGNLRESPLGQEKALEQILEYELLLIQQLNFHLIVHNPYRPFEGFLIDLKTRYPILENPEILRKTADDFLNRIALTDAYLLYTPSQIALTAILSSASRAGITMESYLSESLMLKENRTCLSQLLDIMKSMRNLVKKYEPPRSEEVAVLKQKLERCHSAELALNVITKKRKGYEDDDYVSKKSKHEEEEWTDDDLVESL
Chain of CDK7/cyclinH/MAT1(h) (P51948 whole entry partner): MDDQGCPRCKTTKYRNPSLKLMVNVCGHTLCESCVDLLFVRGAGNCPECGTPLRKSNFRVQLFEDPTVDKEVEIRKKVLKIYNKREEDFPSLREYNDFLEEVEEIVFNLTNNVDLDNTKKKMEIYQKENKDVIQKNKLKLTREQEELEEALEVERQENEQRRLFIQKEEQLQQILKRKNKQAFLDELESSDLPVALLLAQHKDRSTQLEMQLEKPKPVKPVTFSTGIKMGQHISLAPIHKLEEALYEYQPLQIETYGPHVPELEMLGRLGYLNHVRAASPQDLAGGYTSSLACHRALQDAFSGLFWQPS

For `CN1CCCC1CCNC(=O)c1cn2c3c(c(N4CCC(c5cnccn5)C4)c(F)cc3c1=O)Oc1cc3ccccc3cc1-2` (stereo not drawn) [Compound A-1], the remaining activity at 2.5 µM (MAPKAP-K3(h)) was 94%, the remaining activity at 2.5 µM (CDK7/cyclinH/MAT1(h)) was 72% and the remaining activity at 2.5 µM (RIPK2(h)) was 95%. For the same molecule, the remaining activity at 2.5 µM (TrkA(h)) was 25%, the remaining activity at 2.5 µM (ZIPK(h)) was 27% and the remaining activity at 2.5 µM (BTK(h)) was 60%.

Molecule `CC(=O)N1CCN(c2ccc3c(=O)c(C(=O)NCCN4CCCC4)c4n(C)c5ccccc5n4c3n2)CC1` [Compound B-1] has a remaining activity at 2.5 µM (MAPKAP-K3(h)) of 109%, a remaining activity at 2.5 µM (CDK7/cyclinH/MAT1(h)) of 95% and a remaining activity at 2.5 µM (RIPK2(h)) of 99%. It also gave a remaining activity at 2.5 µM (TrkA(h)) of 80%, a remaining activity at 2.5 µM (ZIPK(h)) of 116% and a remaining activity at 2.5 µM (BTK(h)) of 101%.
